Data taken from patent US20070167478A1, “Biomarkers for sensitivity of proliferative diseases to mtor inhibitors” (priority 2003, published 2007).

Assays:
Type in all cases: cell-based
PC3M = experiment: Antiproliferative assay, methylene blue staining, PC3M; settings: PC3M human tumor cell line, 4 days incubation
Procedure: (§1) Human tumor cell lines, e.g. the 40-O-(2-hydroxyethyl) rapamycin-sensitive MCF7, BT549 or LNCap lines (IC50 in sub nM range) versus the comparative 40-O-(2-hydroxyethyl) rapamycin-resistant PC3M line (IC50 in the >100 nM range), as well as cell lines with moderate rapamcyin-sensitivity (IC50 in the 1 nM-100 nM range) such as DU145, HCC1937 and MDA-MB231, are added to 96-well plates (500 to 5000 cells/well in 100 μl medium) and incubated for 24 hr. Subsequently, a dilution series of an mTOR inhibitor, e.g. a compound of formula A, e.g. 40-O-(2-hydroxyethyl) rapamycin is made in separate wells and the dilutions are added to the wells. The cells are then re-incubated for 4 days. Methylene blue staining is performed on day 5 and the amount of bound dye (proportional to the number of surviving cells that bind the dye) determined. IC50s are subsequently determined using Softmax 1.2.0 software.

BT549 = experiment: Antiproliferative assay, methylene blue staining, BT549; settings: BT549 human tumor cell line, 4 days incubation
Procedure: as §1

MCF7 = experiment: Antiproliferative assay, methylene blue staining, MCF7; settings: MCF7 human tumor cell line, 4 days incubation
Procedure: as §1

LNCap = experiment: Antiproliferative assay, methylene blue staining, LNCap; settings: LNCap human tumor cell line, 4 days incubation
Procedure: as §1

IC50 (PC3M): > 100 nM
IC50 (BT549): sub nM
IC50 (MCF7): sub nM
IC50 (LNCap): sub nM
SMILES: CO[C@H]1C[C@@H]2CC[C@@H](C)[C@@](O)(O2)C(=O)C(=O)N2CCCC[C@H]2C(=O)O[C@H]([C@H](C)C[C@@H]2CC[C@@H](OCCO)[C@H](OC)C2)CC(=O)[C@H](C)/C=C(\C)[C@@H](O)[C@@H](OC)C(=O)[C@H](C)C[C@H](C)/C=C/C=C/C=C/1C [40-O-(2-hydroxyethyl) rapamycin]
